These are literature values, as cited in patent US20160074333A1, “Pharmaceutical compositions of tamsulosin or salts thereof” (WOCKHARDT LIMITED, priority 2013, published 2016).

SMILES strings stand for the structures. Counter-ions that a name gives are not always drawn. Like-named read-outs stand apart in the source and are kept apart here.

For the molecule `CCOc1ccccc1OCCN[C@H](C)Cc1ccc(OC)c(S(N)(=O)=O)c1` [Tamsulosin hydrochloride, (-)-(R)-5-[2-[[2-(o-Ethoxyphenoxy)ethyl]amino]propyl]-2-methoxybenzene sulfonamide, monohydrochloride], the solubility result was “slightly soluble” (in ethanol); “practically insoluble” (in ether); “slightly soluble” (in glacial acetic acid); “sparingly soluble” (in methanol); “sparingly soluble” (in water).
